Converted amounts (≈) assume the structure as drawn.
Legend:
Assay type in all cases: physicochemical
[1] = Thermal analysis by DSC and TGA; conditions: 10° C./min; for temperature of mass loss(es) on heating: TGA, Form 1: two distinct mass losses (FIG. 13), free base: a mass loss, probably water (FIG. 14)
Method: Differential Scanning Calorimetry (DSC)
DSC data were collected on a Mettler DSC 823e equipped with a 34 position auto-sampler. The instrument was calibrated for energy and temperature using certified indium. Typically 0.5-3 mg of each sample, in a pin-holed aluminium pan, was heated at 10° C./min from 25° C. to 300° C. A nitrogen purge at 50 ml/min was maintained over the sample.
Thermogravimetric Analysis (TGA)
TGA data were collected on a Mettler TGA/SDTA 851e equipped with a 34 position auto-sampler. The instrument was temperature calibrated using certified indium. Typically 5-30 mg of each sample was loaded onto a pre-weighed aluminium crucible and was heated at 10° C./min from ambient temperature to 400° C. A nitrogen purge at 50 ml/min was maintained over the sample.
Thermal analysis of Form 2 crystalline polymorph (a sample obtained using the method in Example 6) by DSC and TGA was undertaken using the method describe in General Methods. […]

[2] = Gravimetric vapour sorption (GVS); conditions: 25° C.
Method: Gravimetric Vapour Sorption (GVS)
Sorption isotherms were obtained using a SMS DVS Intrinsic moisture sorption analyser, controlled by DVS Intrinsic Control software v1.0.0.30. The sample temperature was maintained at 25° C. by the instrument controls. The humidity was controlled by mixing streams of dry and wet nitrogen, with a total flow rate of 200 ml/min The relative humidity was measured by a calibrated Rotronic probe (dynamic range of 1.0-100% RH), located near the sample. The weight change, (mass relaxation) of the sample as a function of % RH was constantly monitored by the microbalance (accuracy ±0.005 mg).
Typically 5-20 mg of sample was placed in a tared mesh stainless steel basket under ambient conditions. The sample was loaded and unloaded at 40% RH and 25° C. (typical room conditions). A moisture sorption isotherm was performed as outlined below (2 scans giving 1 complete cycle). The standard isotherm was performed at 25° C. at 10% RH intervals over a 0-90% RH range. Data analysis was undertaken in Microsoft Excel using DVS Analysis Suite v6.0.0.7.
The sample was recovered after completion of the isotherm and re-analysed by XRPD.
Gravimetric vapour sorption analysis of Form 2 crystalline polymorph (a sample obtained using the method in Example 6) was undertaken using the method described in General Methods.

[3] = Solid state 13C NMR, environmental dependence of ketone:hydrate ratio; conditions: as prepared 67:33
Method: The analysis was carried out using a Varian VNMRS instrument operating at 100.56 MHz for ^13C (399.88 MHz for 1H) and 376.24 MHz for ^19F with a 4 mm (rotor o.d.) magic-angle spinning probe. Carbon-13 spectra were recorded from the sample using a crosspolarization magic-angle spinning (CPMAS) technique without and with dipolar dephasing (interrupted decoupling). Appropriate acquisition conditions were established using a set of short trial measurements: recycle 5 s, contact time 5 ms. A sample spin-rate of 10.0 kHz was used along with two-pulse phase-modulated (TPPM) 1H decoupling (at a radiofrequency field approximately equivalent to 75 kHz). The sample was run as-received and at ambient probe temperature (˜30° C. at this spin rate). Spectra are referenced with respect to neat tetramethylsilane (by setting the high-frequency line from adamantane to 38.5 ppm). The ^19F spectrum was obtained by direct excitation following a 3.6 μs 90° pulse, with a 60 s relaxation delay, at spin rate of 14 kHz and with no 1H decoupling. The spectrum is referenced relative to CFCI3.
The analysis was carried out using a Varian VNMRS instrument operating at 100.56 MHz for ^13C (399.88 MHz for 1H) and a 6 mm (rotor o.d.) magic-angle spinning probe. Carbon-13 spectra were recorded from the sample using a cross-polarization magic-angle spinning (CPMAS) technique. […]
The ^13C solid state NMR spectrum of a sample of Form 2 crystalline polymorph produced using the method of Example 5 is illustrated in FIG. 5. Based on the integration of the 208 ppm (ketone) and 102 ppm (hydrate) signals, the ketone:hydrate ratio was determined to be 67:33.
The ^13C solid state NMR spectrum illustrated in FIG. 6 was recorded after the sample had been stored at a relative humidity of <2% for one week. […] The ^13C solid state NMR spectrum shown in FIG. 7 was recorded after the sample had been stored at 75% RH for one week. […] The ^13C solid state NMR spectrum shown in FIG. 8 was recorded at 80° C. and gives a ketone content of 68%.

[4] = Thermodynamic aqueous solubility
Method: Thermodynamic Aqueous Solubility
The suspension was equilibrated at 25° C. for 24 hours then the pH was measured. The suspension was then filtered through a glass fibre C filter into a 96 well plate. […] Quantitation was by HPLC with reference to a standard solution of approximately 0.25 mg·ml^−1 in DMSO. Different volumes of the standard, diluted and undiluted sample solutions were injected.
Analysis was performed on an Agilent HP1100 series system equipped with a diode array detector and using ChemStation software vB.02.01-SR1.

Molecule | temperature at which degradation begins ([1]; DSC/TGA, nitrogen, small mass loss until this temperature (FIG. 12)) [°C] | reversibility of water uptake ([2]; 0-90% RH range) | water uptake ([2]; over the 0-90% RH range) [%] | ketone share of ketone/hydrate signal intensity ([3]; after storage at 75% RH for one week (FIG. 7)) [%] | ketone share of ketone/hydrate signal intensity ([3]; after storage at relative humidity <2% for one week (FIG. 6)) [%] | ketone content ([3]; spectrum recorded at 80° C. (FIG. 8)) [%] | temperature of mass loss(es) on heating [1] | solubility at 24 h ([4]; pH 5.8, thermodynamic from solid, suspension in water equilibrated at 25° C. for 24 hours, filtered, HPLC, pH of each suspension printed in same cell) [µg/mL] | pH measured after equilibration of the solubility suspension ([4]; water, 25° C., 24 hours)
N-[1-6-(ethynyl-3-oxo-hexahydro-furo[3,2-b]pyrrole-4-carbonyl)-3-methyl-butyl]-4-[5-fluoro-2-(4-methyl-piperazin-1-yl)thiazol-4-yl]-benzamide monohydrochloride and N-[1-6-(ethynyl-3-oxo-hexahydro-furo[3,2-b]pyrrole-4-carbonyl)-3-methyl-butyl]-4-[5-fluoro-2-(4-methyl-piperazin-1-yl)thiazol-4-yl]-benzamide hydrate monohydrochloride [Form 2 crystalline polymorph] | 160 | reversible | ~2.2 | 67 | 67 | 68 |  |  | 
C#CC1CN(C(=O)C(CC(C)C)NC(=O)c2ccc(-c3nc(N4CCN(C)CC4)sc3F)cc2)C2C(=O)COC12.Cl (stereo not shown) [Form 1 crystalline polymorph, N-[1-6-(ethynyl-3-oxo-hexahydro-furo[3,2-b]pyrrole-4-carbonyl)-3-methyl-butyl]-4-[5-fluoro-2-(4-methyl-piperazin-1-yl)thiazol-4-yl]-benzamide monohydrochloride] |  |  |  |  |  |  | below 160 °C |  | 
C#C[C@@H]1CN(C(=O)[C@H](CC(C)C)NC(=O)c2ccc(-c3nc(N4CCN(C)CC4)sc3F)cc2)[C@@H]2C(=O)CO[C@H]12 [Compound I free base, N-[1-6-(ethynyl-3-oxo-hexahydro-furo[3,2-b]pyrrole-4-carbonyl)-3-methyl-butyl]-4-[5-fluoro-2-(4-methyl-piperazin-1-yl)thiazol-4-yl]-benzamide] |  |  |  |  |  |  | below 110 °C | 300 (≈ 528 µM) | 5.8
